Test results as given in PubChem BioAssay AID248 (DTP/NCI, 2004).
Values joined by “and” are separate entries in the source; they are usually repeats but may differ in a detail not shown here. Identical values can stand only once. Inconclusive results and toxic doses are left out. No stated cut-off is given here; in the data, active means T/C of 150% or more; inactive means T/C below 125%.

Test system: L1210 leukemia ip in BDF1 mice, survival T/C
Experiment: NCI In Vivo Anticancer Drug Screen. Data for tumor model L1210 Leukemia (intraperitoneal) in B6D2F1 (BDF1) mice
Details: endpoint: mean survival time, higher = longer survival
How it was run: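 Antitumor effect is assessed in tumor-bearing animals. Survival in the compound arm is compared with a vehicle-dosed control arm and expressed as their quotient.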

[1] = dose: 100.0 mg/kg/injection, schedule: Q04DX003 (ip), vehicle: saline
[2] = dose: 100.0 mg/kg/injection, schedule: Q04DX003 (ip), vehicle: saline with Tween-80
[3] = dose: 12.5 mg/kg/injection, schedule: Q01DX001 (ip), vehicle: saline
[4] = dose: 25.0 mg/kg/injection, schedule: Q01DX001 (ip), vehicle: saline
[5] = dose: 50.0 mg/kg/injection, schedule: Q01DX001 (ip), vehicle: saline
[6] = dose: 100.0 mg/kg/injection, schedule: Q01DX001 (ip), vehicle: saline
[7] = dose: 200.0 mg/kg/injection, schedule: Q01DX001 (ip), vehicle: saline
[8] = dose: 100.0 mg/kg/injection, schedule: Q04DX003 (ip), vehicle: other
[9] = dose: 200.0 mg/kg/injection, schedule: Q04DX003 (ip), vehicle: other
[10] = dose: 400.0 mg/kg/injection, schedule: Q01DX001 (ip), vehicle: saline
[11] = dose: 100.0 mg/kg/injection, schedule: Q01DX009 (ip), vehicle: saline with Tween-80
[12] = dose: 200.0 mg/kg/injection, schedule: Q01DX009 (ip), vehicle: saline with Tween-80
[13] = dose: 50.0 mg/kg/injection, schedule: Q01DX009 (ip), vehicle: saline with Tween-80
[14] = dose: 100.0 mg/kg/injection, schedule: Q01DX001 (ip), vehicle: carboxymethylcellulose (CMC)
[15] = dose: 200.0 mg/kg/injection, schedule: Q01DX001 (ip), vehicle: carboxymethylcellulose (CMC)
[16] = dose: 400.0 mg/kg/injection, schedule: Q01DX001 (ip), vehicle: carboxymethylcellulose (CMC)

Measured: T/C

O=C(c1ccccc1)C(C(=O)c1ccccc1)C(C[N+](=O)[O-])c1ccccc1 (configuration not stated)
inactive: dose: 100.0 mg/kg/injection, schedule: Q01DX001 (ip), vehicle: gum acacia 86 % of control | dose: 200.0 mg/kg/injection, schedule: Q01DX001 (ip), vehicle: gum acacia 86 % of control | dose: 400.0 mg/kg/injection, schedule: Q01DX001 (ip), vehicle: gum acacia 90 % of control

CC[N+](C)(CC)CCOc1cc(C)ccc1C(C)C
inactive: dose: 25.0 mg/kg/injection, schedule: Q04DX003 (ip), vehicle: saline 104 % of control | dose: 50.0 mg/kg/injection, schedule: Q04DX003 (ip), vehicle: saline 98 % of control | [1] 93 % of control and 98 % of control

CC1(C)CC(N=Cc2ccccc2O)CC(C)(C)N1O.CC1(C)CC(N=Cc2ccccc2O)CC(C)(C)N1O.[Ni]
inactive: [2] 100 % of control

O=NN(CCCl)C(=O)Nc1ccccc1NC(=O)N(CCCl)N=O
inactive: dose: 4.0 mg/kg/injection, schedule: Q01DX001 (ip), vehicle: carboxymethylcellulose (CMC) 122 % of control

CCC(C)C(C(=O)OC1CCN(CC)CC1)c1ccccc1 (configuration not stated)
inactive: [1] 94 % of control

CC12CCC3CC1OC(=O)C32 (configuration not stated)
inactive: [3] 98 % of control | [4] 94 % of control | [5] 105 % of control

O=C(O)C1CC12c1ccccc1-c1ccccc12 (configuration not stated)
inactive: [6] 92 % of control | [7] 95 % of control

COC(=O)C1=C(O)CN(C)C1=O
inactive: [3] 98 % of control | [4] 93 % of control | dose: 25.0 mg/kg/injection, schedule: Q01DX009 (ip), vehicle: saline 101 % of control | [5] 91 % of control | dose: 50.0 mg/kg/injection, schedule: Q01DX009 (ip), vehicle: saline 103 % of control | [6] 86 % of control | dose: 100.0 mg/kg/injection, schedule: Q01DX009 (ip), vehicle: saline 96 % of control | dose: 150.0 mg/kg/injection, schedule: Q01DX009 (ip), vehicle: saline 94 % of control

COc1ccc(/C=C(/C(=O)O)c2ccc(OC)cc2)cc1
inactive: [8] 98 % of control | [9] 95 % of control | dose: 400.0 mg/kg/injection, schedule: Q04DX003 (ip), vehicle: other 95 % of control

O=C(O)CN(Cc1ccccc1)Sc1ccccc1[N+](=O)[O-]
inactive: dose: 50.0 mg/kg/injection, schedule: Q01DX009 (ip), vehicle: other 98 % of control | dose: 100.0 mg/kg/injection, schedule: Q01DX009 (ip), vehicle: other 91 % of control | [8] 98 % of control | [9] 96 % of control

Cc1ccc(C(CS(=O)(=O)c2ccc(C)cc2)c2ccccc2)cc1 (configuration not stated)
inactive: [6] 92 % of control | [7] 103 % of control | [10] 94 % of control

CC1=CC=CC(=O)C1(C)C(Cl)Cl (configuration not stated)
inactive: [11] 91 % of control | [2] 97 % of control | [12] 104 % of control | dose: 200.0 mg/kg/injection, schedule: Q04DX003 (ip), vehicle: saline with Tween-80 108 % of control | dose: 400.0 mg/kg/injection, schedule: Q01DX009 (ip), vehicle: saline with Tween-80 109 % of control | dose: 400.0 mg/kg/injection, schedule: Q04DX003 (ip), vehicle: saline with Tween-80 94 % of control

CN1CCC(c2ccccc2)(c2ccccc2)OC1
inactive: [2] 94 % of control

CNC(=O)n1cncn1
inactive: [6] 95 % of control | [1] 101 % of control | [7] 93 % of control | dose: 200.0 mg/kg/injection, schedule: Q04DX003 (ip), vehicle: saline 95 % of control | [10] 95 % of control

CCN(CC)C(=O)c1ccc[n+](CC(=O)Nc2ccc(Cl)cc2)c1
inactive: dose: 12.5 mg/kg/injection, schedule: Q01DX009 (ip), vehicle: saline with Tween-80 97 % of control | dose: 12.5 mg/kg/injection, schedule: Q04DX003 (ip), vehicle: saline with Tween-80 100 % of control | dose: 25.0 mg/kg/injection, schedule: Q01DX009 (ip), vehicle: saline with Tween-80 97 % of control | dose: 25.0 mg/kg/injection, schedule: Q04DX003 (ip), vehicle: saline with Tween-80 94 % of control | [13] 97 % of control | dose: 50.0 mg/kg/injection, schedule: Q04DX003 (ip), vehicle: saline with Tween-80 103 % of control

Nc1nc2ncc(CNc3ccc(C(=O)NC(CCC(=O)O)C(=O)O)cc3F)nc2c(=O)[nH]1 (configuration not stated)
inactive: [5] 109 % of control | [6] 105 % of control

Cc1ccc(C(=O)C2CC=CCC2C(=O)c2ccc(C)cc2)cc1 (configuration not stated)
inactive: dose: 50.0 mg/kg/injection, schedule: Q01DX009 (ip), vehicle: Klucel (hydroxypropylcellulose) (HPC) 97 % of control | dose: 100.0 mg/kg/injection, schedule: Q01DX009 (ip), vehicle: Klucel (hydroxypropylcellulose) (HPC) 91 % of control | dose: 200.0 mg/kg/injection, schedule: Q01DX009 (ip), vehicle: Klucel (hydroxypropylcellulose) (HPC) 92 % of control | dose: 400.0 mg/kg/injection, schedule: Q01DX009 (ip), vehicle: Klucel (hydroxypropylcellulose) (HPC) 90 % of control

COC(=O)Cc1ccc([N+](=O)[O-])cc1
inactive: [14] 94 % of control | [15] 91 % of control | [16] 88 % of control

O=C(O)c1cc2ccc(O)cc2oc1=O
inactive: [14] 94 % of control | [15] 94 % of control | [16] 97 % of control

O=[N+]([O-])c1ccc2ccc3ccccc3c2c1
inactive: [14] 97 % of control | [15] 95 % of control | [16] 97 % of control

O=C(Nc1ccc(F)c(Cl)c1)N(CCO)C1CCCCC1
inactive: dose: 100.0 mg/kg/injection, schedule: Q04DX003 (ip), vehicle: Klucel (hydroxypropylcellulose) (HPC) 101 % of control | dose: 200.0 mg/kg/injection, schedule: Q04DX003 (ip), vehicle: Klucel (hydroxypropylcellulose) (HPC) 100 % of control | dose: 400.0 mg/kg/injection, schedule: Q04DX003 (ip), vehicle: Klucel (hydroxypropylcellulose) (HPC) 92 % of control

CC1OC(C)C(Cl)C1Cl (configuration not stated)
inactive: dose: 50.0 mg/kg/injection, schedule: Q04DX002 (ip), vehicle: Klucel (hydroxypropylcellulose) (HPC) 110 % of control | dose: 100.0 mg/kg/injection, schedule: Q04DX002 (ip), vehicle: Klucel (hydroxypropylcellulose) (HPC) 95 % of control | dose: 200.0 mg/kg/injection, schedule: Q04DX002 (ip), vehicle: Klucel (hydroxypropylcellulose) (HPC) 100 % of control

N#Cc1cn[nH]c1N
inactive: dose: 100.0 mg/kg/injection, schedule: Q01DX001 (ip), vehicle: saline with Tween-80 98 % of control | dose: 200.0 mg/kg/injection, schedule: Q01DX001 (ip), vehicle: saline with Tween-80 95 % of control | dose: 400.0 mg/kg/injection, schedule: Q01DX001 (ip), vehicle: saline with Tween-80 103 % of control

Cc1cn(C2CC(O)C(CN)O2)c(=O)[nH]c1=O (configuration not stated)
inactive: dose: 100.0 mg/kg/injection, schedule: Q01DX005 (ip), vehicle: saline 96 % of control | dose: 200.0 mg/kg/injection, schedule: Q01DX005 (ip), vehicle: saline 104 % of control

COc1cc(C2C(C(=O)OC/C=C/c3ccc4c(c3)OCO4)C(c3cc(OC)c(OC)c(OC)c3)C2C(=O)OC/C=C/c2ccc3c(c2)OCO3)cc(OC)c1OC (configuration not stated)
inactive: [14] 90 % of control | [15] 95 % of control | [16] 88 % of control

COC(=O)C1(C)CCCC2(C)C1CCC13OCC(CC21)C(O)(C(C)C)C3O (configuration not stated)
inactive: [13] 97 % of control | [11] 97 % of control | [12] 90 % of control
